Laboratory results taken from paper PMC9730589, “Characterization of a novel AA3_1 xylooligosaccharide dehydrogenase from Thermothelomyces myriococcoides CBS 398.93” (Biotechnology for Biofuels and Bioproducts, 2022).

System: T1, TmXdhA
T1 construct: native full gene from cDNA (578 residues, GMC dehydrogenase domain only, no cytochrome or CBM1); ORF start MQTASKL by primer; SEC-purified, contaminated with an A. niger hydrolase (A0A370CB09)
Experiment: spectrophotometric reduction of […],4-benzoquinone at […] nm, Michaelis-Menten fit
Format: biochemical, Thermothelomyces myriococcoides
Conditions: 1 mM 1,4-benzoquinone, 50 mM ammonium acetate pH 5.5, 30 °C

Km [µM]	SMILES
160 ± 10	OC1OC[C@@H](O[C@@H]2OC[C@@H](O)[C@H](O)[C@H]2O)[C@H](O)[C@H]1O (stereo partly drawn) [X2, Xylobiose]
110 ± 10	OC1OC[C@@H](O[C@@H]2OC[C@@H](O[C@@H]3OC[C@@H](O)[C@H](O)[C@H]3O)[C@H](O)[C@H]2O)[C@H](O)[C@H]1O (stereo partly drawn) [X3, Xylotriose]
130 ± 10	OC1OC[C@@H](O[C@@H]2OC[C@@H](O[C@@H]3OC[C@@H](O[C@@H]4OC[C@@H](O)[C@H](O)[C@H]4O)[C@H](O)[C@H]3O)[C@H](O)[C@H]2O)[C@H](O)[C@H]1O (stereo partly drawn) [X4, Xylotetraose]

More lines, now with the values behind:

SMILES	Km [µM]
OC[C@H]1O[C@@H](O[C@H]2[C@H](O)[C@@H](O)C(O)O[C@@H]2CO)[C@H](O)[C@@H](O)[C@@H]1O (stereo partly drawn) [C2, Cellobiose]	360 ± 40
OC[C@H]1O[C@@H](O[C@H]2[C@H](O)[C@@H](O)[C@H](O[C@H]3[C@H](O)[C@@H](O)C(O)O[C@@H]3CO)O[C@@H]2CO)[C@H](O)[C@@H](O)[C@@H]1O (stereo partly drawn) [C3, Cellotriose]	430 ± 40
OC[C@H]1O[C@@H](O[C@H]2[C@H](O)[C@@H](O)[C@H](O[C@H]3[C@H](O)[C@@H](O)[C@H](O[C@H]4[C@H](O)[C@@H](O)C(O)O[C@@H]4CO)O[C@@H]3CO)O[C@@H]2CO)[C@H](O)[C@@H](O)[C@@H]1O (stereo partly drawn) [C4, Cellotetraose]	530 ± 40
